Molecular target: T1, mGlyT-1b (Mus musculus, UniProt P28571)
T1 construct: host or cells: Flp-in-CHO
T1 sequence (P28571 1-651 isoform P28571-2): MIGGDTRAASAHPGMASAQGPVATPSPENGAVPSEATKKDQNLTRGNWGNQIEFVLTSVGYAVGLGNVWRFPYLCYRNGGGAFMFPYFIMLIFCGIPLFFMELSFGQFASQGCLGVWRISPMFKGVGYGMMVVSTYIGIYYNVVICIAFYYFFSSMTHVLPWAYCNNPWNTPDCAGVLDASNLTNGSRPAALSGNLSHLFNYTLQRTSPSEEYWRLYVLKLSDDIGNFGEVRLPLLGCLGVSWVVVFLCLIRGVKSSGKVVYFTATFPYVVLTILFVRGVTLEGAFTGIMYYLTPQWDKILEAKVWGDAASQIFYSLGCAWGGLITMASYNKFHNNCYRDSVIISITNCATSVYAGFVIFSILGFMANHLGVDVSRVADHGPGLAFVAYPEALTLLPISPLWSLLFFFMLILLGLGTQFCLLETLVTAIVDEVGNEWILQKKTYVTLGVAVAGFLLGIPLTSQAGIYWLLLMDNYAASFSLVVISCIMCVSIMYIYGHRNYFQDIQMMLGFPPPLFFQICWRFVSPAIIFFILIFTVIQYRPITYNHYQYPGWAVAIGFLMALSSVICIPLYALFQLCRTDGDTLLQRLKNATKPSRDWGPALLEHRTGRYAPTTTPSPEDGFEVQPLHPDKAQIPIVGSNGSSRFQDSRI
Experiment: Glycine Uptake Inhibition Assay (mGlyT-1b)
Assay type: cell-based
Description: DMEM complete medium: Nutrient mixture F-12 (Gibco Life-technologies), fetal bovine serum (FBS) 5%, (Gibco life technologies), Penicillin/Streptomycin 1% (Gibco life technologies), Hygromycin 0.6 mg/ml (Gibco life technologies), Glutamine 1 mM Gibco life technologies)
Uptake buffer (UB): 150 mM NaCl, 10 mM Hepes-Tris, pH 7.4, 1 mM CaCl2, 2.5 mM KCl, 2.5 mM MgSO4, 10 mM (+) D-glucose.
Flp-in™-CHO (Invitrogen Cat n° R758-07) cells stably transfected with mGlyT1b cDNA.
Glycine Uptake Inhibition Assay (mGlyT-1b)
On day 1 mammalian cells, (Flp-in™-CHO), transfected with mGlyT-1b cDNA, were plated at the density of 40,000 cells/well in complete F-12 medium, without hygromycin in 96-well culture plates. On day 2, the medium was aspirated and the cells were washed twice with uptake buffer (UB). The cells were then incubated for 20 min at 22° C. with either (i) no potential competitor, (ii) 10 mM non-radioactive glycine, (iii) a concentration of a potential inhibitor. A range of concentrations of the potential inhibitor was used to generate data for calculating the concentration of inhibitor resulting in 50% of the effect (e.g. IC50, the concentration of the competitor inhibiting glycine uptake of 50%). A solution was then immediately added containing [^3H]-glycine 60 nM (11-16 Ci/mmol) and 25 μM non-radioactive glycine. The plates were incubated with gentle shaking and the reaction was stopped by aspiration of the mixture and washing (three times) with ice-cold UB. The cells were lysed with scintillation liquid, shaken 3 hours and the radioactivity in the cells was counted using a scintillation counter.

| IC50 [nM] | SMILES |
| --- | --- |
| 52 | O=C(CN(Cc1c(F)cccc1F)C(=O)c1ccc(Cl)cc1)Nc1cccc(Cl)c1 [Example 1, 4-Chloro-N-[(3-chloro-phenylcarbamoyl)-methyl]-N-(2,6-difluoro-benzyl)-benzamide] |
| 265 | O=C(CN(Cc1ccc(F)c(F)c1)C(=O)c1ccc(Cl)cc1)Nc1cccc(Cl)c1 [Example 2, 4-Chloro-N-[(3-chloro-phenylcarbamoyl)-methyl]-N-(3,4-difluoro-benzyl)-benzamide] |
| 184 | O=C(CN(Cc1cc(F)cc(F)c1)C(=O)c1ccc(Cl)cc1)Nc1cccc(Cl)c1 [Example 3, 4-Chloro-N-[(3-chloro-phenylcarbamoyl)-methyl]-N-(3,5-difluoro-benzyl)-benzamide] |
| 74 | O=C(CN(Cc1cccc(F)c1F)C(=O)c1ccc(Cl)cc1)Nc1cccc(Cl)c1 [Example 4, 4-Chloro-N-[(3-chloro-phenylcarbamoyl)-methyl]-N-(2,3-difluoro-benzyl)-benzamide] |
| 160 | O=C(CN(Cc1ccc(F)cc1F)C(=O)c1ccc(Cl)cc1)Nc1cccc(Cl)c1 [Example 5, 4-Chloro-N-[(3-chloro-phenylcarbamoyl)-methyl]-N-(2,4-difluoro-benzyl)-benzamide] |
| 165 | O=C(CN(Cc1cc(F)ccc1F)C(=O)c1ccc(Cl)cc1)Nc1cccc(Cl)c1 [Example 6, 4-Chloro-N-[(3-chloro-phenylcarbamoyl)-methyl]-N-(2,5-difluoro-benzyl)-benzamide] |
| 128 | O=C(CN(Cc1cccc(F)c1)C(=O)c1ccc(Cl)cc1)Nc1cccc(Cl)c1 [Example 8, 4-Chloro-N-[(3-chloro-phenylcarbamoyl)-methyl]-N-(3-fluoro-benzyl)-benzamide] |
| 74 | O=C(CN(Cc1ccccc1F)C(=O)c1ccc(Cl)cc1)Nc1cccc(Cl)c1 [Example 9, 4-Chloro-N-[(3-chloro-phenylcarbamoyl)-methyl]-N-(2-fluoro-benzyl)-benzamide] |
| 285 | COc1ccc(C(=O)N(CC(=O)Nc2cccc(Cl)c2)Cc2ccsc2)cc1 [Example 10, N-[(3-Chloro-phenylcarbamoyl)-methyl]-4-methoxy-N-thiophen-3-ylmethyl-benzamide] |
| 24 | COc1ccc(C(=O)N(CC(=O)Nc2cccc(Cl)c2)Cc2cccc(Cl)c2)cc1 [Example 14, N-(3-Chloro-benzyl)-N-[(3-chloro-phenylcarbamoyl)-methyl]-4-methoxy-benzamide] |
| 156 | O=C(CN(Cc1ccccc1)C(=O)c1ccc(Cl)cc1)Nc1cccc(Cl)c1 [Example 16, N-Benzyl-4-chloro-N-[(3-chloro-phenylcarbamoyl)-methyl]-benzamide] |
| 77 | O=C(CN(Cc1cccs1)C(=O)c1ccc(Cl)cc1)Nc1cccc(Cl)c1 [Example 17, 4-Chloro-N-[(3-chloro-phenylcarbamoyl)-methyl]-N-thiophen-2-ylmethyl-benzamide] |
| 257 | COc1ccc(C(=O)N(CC(=O)Nc2ccc(Cl)c(Cl)c2)Cc2cccs2)cc1 [Example 18, N-[(3,4-Dichloro-phenylcarbamoyl)-methyl]-4-methoxy-N-thiophen-2-ylmethyl-benzamide] |
| 166 | O=C(CN(Cc1ccccc1Cl)C(=O)c1ccc(Cl)cc1)Nc1cccc(F)c1 [Example 59, 4-Chloro-N-(2-chloro-benzyl)-N-[(3-fluoro-phenylcarbamoyl)-methyl]-benzamide] |

More lines, now with the values behind:

| SMILES | IC50 [nM] |
| --- | --- |
| COc1ccc(C(=O)N(CC(=O)Nc2cccc(Cl)c2)Cc2c(F)cccc2F)cc1 [Example 11, N-[(3-Chloro-phenylcarbamoyl)-methyl]-N-(2,6-difluoro-benzyl)-4-methoxy-benzamide] | 100 |
| COc1ccc(C(=O)N(CC(=O)Nc2cccc(Cl)c2)Cc2cc(Cl)cc(Cl)c2)cc1 [Example 12, N-[(3-Chloro-phenylcarbamoyl)-methyl]-N-(3,5-dichloro-benzyl)-4-methoxy-benzamide] | 243 |
| O=C(CN(Cc1ccccc1)C(=O)c1ccc(F)cc1)Nc1cccc(Cl)c1 [Example 15, N-Benzyl-N-[(3-chloro-phenylcarbamoyl)-methyl]-4-fluoro-benzamide] | 312 |
| COc1ccc(C(=O)N(CC(=O)Nc2cccc(Cl)c2)Cc2c(Cl)cccc2Cl)cc1 [Example 19, N-[(3-Chloro-phenylcarbamoyl)-methyl]-N-(2,6-dichloro-benzyl)-4-methoxy-benzamide] | 164 |
| COc1ccc(C(=O)N(CC(=O)Nc2ccc(Cl)c(Cl)c2)c2ccccc2F)cc1 [Example 21, N-[(3,4-Dichloro-phenylcarbamoyl)-methyl]-N-(2-fluoro-phenyl)-4-methoxy-benzamide] | 315 |
| COc1ccc(C(=O)N(CC(=O)Nc2cccc(C(F)(F)F)c2)c2ccccc2)cc1 [Example 27, 4-Methoxy-N-phenyl-N-[(3-trifluoromethyl-phenylcarbamoyl)-methyl]-benzamide] | 148 |
| COc1ccc(C(=O)N(CC(=O)Nc2cccc(Cl)c2)c2ccccc2)cc1 [Example 28, N-[(3-Chloro-phenylcarbamoyl)-methyl]-4-methoxy-N-phenyl-benzamide] | 267 |
| N#Cc1cccc(C(=O)N(CC(=O)Nc2ccc(Cl)c(Cl)c2)c2ccccc2)c1 [Example 31, 3-Cyano-N-[(3,4-dichloro-phenylcarbamoyl)-methyl]-N-phenyl-benzamide] | 350 |
| O=C(CN(C(=O)c1ccc(C(F)(F)F)nc1)c1ccccc1)Nc1ccc(Cl)c(Cl)c1 [Example 37, N-[(3,4-Dichloro-phenylcarbamoyl)-methyl]-N-phenyl-6-trifluoromethyl-nicotinamide] | 154 |
| O=C(CN(C(=O)c1ccccc1F)c1ccccc1)Nc1ccc(Cl)c(Cl)c1 [Example 39, N-[(3,4-Dichloro-phenylcarbamoyl)-methyl]-2-fluoro-N-phenyl-benzamide] | 291 |
| COc1ccc(C(=O)N(CC(=O)Nc2ccc(Cl)c(Cl)c2)c2ccccc2)cc1 [Example 41, N-[(3,4-Dichloro-phenylcarbamoyl)-methyl]-4-methoxy-N-phenyl-benzamide] | 276 |
| N#Cc1ccc(C(=O)N(CC(=O)Nc2cccc(C(F)(F)F)c2)Cc2ccccc2Cl)cc1 [Example 43, N-(2-Chloro-benzyl)-4-cyano-N-[(3-trifluoromethyl-phenylcarbamoyl)-methyl]-benzamide] | 339 |
| O=C(CN(Cc1ccccc1Cl)C(=O)c1cc2ccccc2s1)Nc1cccc(C(F)(F)F)c1 [Example 51, Benzo[b]thiophene-2-carboxylic acid (2-chloro-benzyl)-[(3-trifluoromethyl-phenylcarbamoyl)-methyl]-amide] | 60 |
| O=C(CN(Cc1ccccc1Cl)C(=O)c1cccc(F)c1)Nc1cccc(C(F)(F)F)c1 [Example 52, N-(2-Chloro-benzyl)-3-fluoro-N-[(3-trifluoromethyl-phenylcarbamoyl)-methyl]-benzamide] | 153 |
| O=C(CN(Cc1ccccc1Cl)C(=O)c1ccc(Cl)cc1)Nc1cccc(C(F)(F)F)c1 [Example 53, 4-Chloro-N-(2-chloro-benzyl)-N-[(3-trifluoromethyl-phenylcarbamoyl)-methyl]-benzamide] | 241 |
| O=C(CN(Cc1ccccc1Cl)C(=O)c1ccc(OC(F)(F)F)cc1)Nc1cccc(C(F)(F)F)c1 [Example 54, #N!-(2-Chloro-benzyl)-4-trifluoromethoxy-#N!-[(3-trifluoromethyl-phenylcarbamoyl)-methyl]-benzamide] | 196 |
| O=C(CN(Cc1ccccc1Cl)C(=O)c1ccc(F)cc1)Nc1cccc(C(F)(F)F)c1 [Example 55, N-(2-Chloro-benzyl)-4-fluoro-N-[(3-trifluoromethyl-phenylcarbamoyl)-methyl]-benzamide] | 97 |
| O=C(CN(Cc1ccccc1Cl)C(=O)c1cc2ccccc2s1)Nc1cccc(F)c1 [Example 57, Benzo[b]thiophene-2-carboxylic acid (2-chloro-benzyl)-[(3-fluoro-phenylcarbamoyl)-methyl]-amide] | 88 |
| O=C(CN(Cc1ccccc1Cl)C(=O)c1ccc(OC(F)(F)F)cc1)Nc1cccc(F)c1 [Example 60, N-(2-Chloro-benzyl)-N-[(3-fluoro-phenylcarbamoyl)-methyl]-4-trifluoromethoxy-benzamide] | 107 |

From patent US7589089B2, “Inhibitors for GlyT-1” (Hoffmann-La Roche Inc., priority 2006, dated 2009)
